Measurements published in PubChem BioAssay AID1963838 (Molecular Pharmacology Branch, DTP, NCI, 2024).

System: 855422-203-R-J1-PDC complex spheroid viability
Assay: Anticancer human tumor 855422-203-R-J1-PDC patient-derived bladder carcinoma cell line growth inhibition [POLQ]
Conditions: for IC50: curve of first compound; for viability, T/C: stronger effect = lower value
Method: Multicellular complex tumor spheroid response to Polymerase (POL) inhibitors (novobiocin, ART-558, RP6685) in combination with a variety of drugs and investigational agents in selected tumor cell lines
The POL inhibitors (novobiocin, ART-558, and RP6685) were evaluated both individually and in combination with standard of care and investigational anticancer small molecules within a complex spheroid model of solid tumors. . Complex spheroids include a stromal component modeled by human endothelial cells (HUVEC) and fibroblasts modeled by human mesenchymal stem cells (MSCs). The concentration ranges selected for each drug and investigational agent were based upon clinically achievable concentrations if the clinical Cmax of the agent was known.
Compounds. The drugs and investigational agents: novobiocin (NSC847541), ART-558 (NSC835418), RP-6685 (NSC848927), peposertib (NSC802822), ceralasertib (NSC780249), elimusertib (NSC800525), camonsertib (NSC841442), AZD-1390 (NSC803789), olaparib (NSC753686), talazoparib (NSC767125), rucaparib (NSC756644), sotorasib (NSC818433), MRTX-1133 (NSC836407), SN-38 (NSC673596), topotecan (NSC609699), epotoside (NSC141540), doxorubicin (NSC123127), gemcitabine (NSC613327), 5-fluorouracil (NSC19893), paclitaxel (NSC125973), vemurafenib (NSC761431), MSA-2 (NSC828583), SN-011 (NSC837082), adavosertib (NSC754352), prexasertib (NSC758257), carboplatin (NSC241240) and oxaliplatin (NSC266046), were obtained from the National Cancer Institute (NCI) Developmental Therapeutics Program Chemical Repository (21). The FDA-approved anticancer drug set is available from the Developmental Therapeutics Program at https://dtp.cancer.gov/organization/dscb/obtaining/. […] The stock solutions were prepared in dimethyl sulfoxide (DMSO, Sigma-Aldrich, St. Louis, MO, cat. D2650), except for the platinum compounds which were prepared in saline (Quality Biological, Gaithersburg, MD, cat. 114-055-101), at 800-fold the tested concentration and stored at -70 degrees C prior to their use. All drugs and investigational agents were tested over a range starting from a high concentration at or near the clinical Cmax and decreasing in half-log increments. If the clinical Cmax for an agent had not been determined, the highest concentration tested was 10 microM, except for SN-38, which was tested at a high concentration of 1 microM.
Cell Culture. All cells were maintained in an incubator at 37 degrees C and 5% CO2 with 95% humidity. The PDC lines were cultured according to standard operating procedures established by the NCI PDMR (https://pdmr.cancer.gov). Table 3 of the manuscript, lists the cell lines along with the number of the three cell types plated to form the mct-spheroids and media for tumor cell growth. After thawing, all PDC lines, except 997537-175-T-J1-PDC and 415267-285-R-J2-PDC, were cultured in Matrigel-coated flasks prepared with a working solution of 1X Ham's F-12 nutrient mix, without supplementation (Thermo Fisher Scientific, cat. 11765054), 100 U/mL penicillin-streptomycin (Thermo Fisher Scientific, cat. 15140122), and 2.5% Matrigel (Corning Inc., Corning, NY, cat. 354248) for the first three passages. The two PDC lines 997537-175-T-J1-PDC and 415267-285-R-J2-PDC were cultured on uncoated flasks. The 857933-349-R-J2-PDC line was cultured in 6C/Colon 1B media containing advanced DMEM/F-12 (Thermo Fisher Scientific, cat. 12634028), 10 mM HEPES (Thermo Fisher Scientific, cat. 15630080), 1X GlutaMAX supplement (Thermo Fisher Scientific, cat. 35050061), 0.1 mg/mL primocin (InvivoGen, San Diego, CA, cat. ant-pm-2), 10% defined fetal bovine serum, heat inactivated (HyClone Laboratories Inc., Logan, UT, cat. SH30070.03HI), 50% L-WRN conditioned media (ATCC, cat. CRL-3276), 1.25 mM N-Acetyl-L-cysteine (Sigma-Aldrich, cat. A9165), 10 mM nicotinamide (Sigma-Aldrich, cat. N0636), 1X B-27 supplement (Thermo Fisher Scientific, cat. 17504044), 1X N-2 supplement (Thermo Fisher Scientific, cat. […]

[1] = second compound 0.0316 µM, first compound 0.0316 µM
[2] = second compound 0.0316 µM, first compound 0.1 µM
[3] = second compound 0.1 µM, first compound 0.0316 µM
[4] = second compound 0.1 µM, first compound 0.1 µM
[5] = second compound 0.316 µM, first compound 0.0316 µM
[6] = second compound 0.316 µM, first compound 0.1 µM
[7] = second compound 1 µM, first compound 0.0316 µM
[8] = second compound 1 µM, first compound 0.1 µM
[9] = second compound 3.16 µM, first compound 0.0316 µM
[10] = second compound 3.16 µM, first compound 0.1 µM
[11] = second compound 10 µM, first compound 0.0316 µM
[12] = second compound 10 µM, first compound 0.1 µM
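Further: spheroids exposed to compounds for seven days before readout.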

`CNCc1ccc(-c2[nH]c3cc(F)cc4c3c2CCNC4=O)cc1` + COC1C(OC(N)=O)C(O)C(Oc2ccc3c(O)c(NC(=O)c4ccc(O)c(CC=C(C)C)c4)c(=O)oc3c2C)OC1(C)C showed an IC50 (second compound 0.0316 µM) greater than 10 µM, an IC50 (second compound 0.1 µM) greater than 10 µM and an IC50 (second compound 0.316 µM) greater than 10 µM. For the same compound, the IC50 (second compound 1 µM) was greater than 10 µM, the IC50 (second compound 3.16 µM) was greater than 10 µM and the IC50 (second compound 10 µM) was greater than 10 µM. It also gave a viability, T/C [1] of 93.5%, a viability, T/C [2] of 104% and a viability, T/C (second compound 0.0316 µM, first compound 0.316 µM) of 125%. The viability, T/C (second compound 0.0316 µM, first compound 1 µM) was 106%, the viability, T/C (second compound 0.0316 µM, first compound 3.16 µM) was 107% and the viability, T/C (second compound 0.0316 µM, first compound 10 µM) was 105%. The viability, T/C [3] was 110%, the viability, T/C [4] was 108% and the viability, T/C (second compound 0.1 µM, first compound 0.316 µM) was 98%. The viability, T/C (second compound 0.1 µM, first compound 1 µM) was 109%, the viability, T/C (second compound 0.1 µM, first compound 3.16 µM) was 100% and the viability, T/C (second compound 0.1 µM, first compound 10 µM) was 110%. The viability, T/C [5] was 91.3%, the viability, T/C [6] was 97.8% and the viability, T/C (second compound 0.316 µM, first compound 0.316 µM) was 99.5%. The viability, T/C (second compound 0.316 µM, first compound 1 µM) was 104%, the viability, T/C (second compound 0.316 µM, first compound 3.16 µM) was 105% and the viability, T/C (second compound 0.316 µM, first compound 10 µM) was 118%. For the same compound, the viability, T/C [7] was 104%, the viability, T/C [8] was 107% and the viability, T/C (second compound 1 µM, first compound 0.316 µM) was 110%. For the same compound, the viability, T/C (second compound 1 µM, first compound 1 µM) was 107%, the viability, T/C (second compound 1 µM, first compound 3.16 µM) was 117% and the viability, T/C (second compound 1 µM, first compound 10 µM) was 104%. For the same compound, the viability, T/C [9] was 106%, the viability, T/C [10] was 92% and the viability, T/C (second compound 3.16 µM, first compound 0.316 µM) was 112%. It also gave a viability, T/C (second compound 3.16 µM, first compound 1 µM) of 109%, a viability, T/C (second compound 3.16 µM, first compound 3.16 µM) of 104% and a viability, T/C (second compound 3.16 µM, first compound 10 µM) of 109%. For the same compound, the viability, T/C [11] was 110%, the viability, T/C [12] was 101% and the viability, T/C (second compound 10 µM, first compound 0.316 µM) was 111%. The viability, T/C (second compound 10 µM, first compound 1 µM) was 106%, the viability, T/C (second compound 10 µM, first compound 3.16 µM) was 93.2% and the viability, T/C (second compound 10 µM, first compound 10 µM) was 97.4%.
With `Cn1ncnc1[C@H]1c2n[nH]c(=O)c3cc(F)cc(c23)N[C@@H]1c1ccc(F)cc1` + COC1C(OC(N)=O)C(O)C(Oc2ccc3c(O)c(NC(=O)c4ccc(O)c(CC=C(C)C)c4)c(=O)oc3c2C)OC1(C)C the IC50 (second compound 0.0316 µM) was greater than 0.1 µM, the IC50 (second compound 0.1 µM) was greater than 0.1 µM and the IC50 (second compound 0.316 µM) was greater than 0.1 µM. It also gave an IC50 (second compound 1 µM) greater than 0.1 µM, an IC50 (second compound 3.16 µM) greater than 0.1 µM and an IC50 (second compound 10 µM) greater than 0.1 µM. For the same compound, the viability, T/C (second compound 0.0316 µM, first compound 0.000316 µM) was 94.6%, the viability, T/C (second compound 0.0316 µM, first compound 0.001 µM) was 104% and the viability, T/C (second compound 0.0316 µM, first compound 0.00316 µM) was 116%. The viability, T/C (second compound 0.0316 µM, first compound 0.01 µM) was 106%, the viability, T/C [1] was 108% and the viability, T/C [2] was 108%. It also gave a viability, T/C (second compound 0.1 µM, first compound 0.000316 µM) of 81.8%, a viability, T/C (second compound 0.1 µM, first compound 0.001 µM) of 93.8% and a viability, T/C (second compound 0.1 µM, first compound 0.00316 µM) of 113%. For the same compound, the viability, T/C (second compound 0.1 µM, first compound 0.01 µM) was 95.3%, the viability, T/C [3] was 99.7% and the viability, T/C [4] was 96.6%. For the same compound, the viability, T/C (second compound 0.316 µM, first compound 0.000316 µM) was 106%, the viability, T/C (second compound 0.316 µM, first compound 0.001 µM) was 106% and the viability, T/C (second compound 0.316 µM, first compound 0.00316 µM) was 101%. For the same compound, the viability, T/C (second compound 0.316 µM, first compound 0.01 µM) was 108%, the viability, T/C [5] was 95.4% and the viability, T/C [6] was 118%. It also gave a viability, T/C (second compound 1 µM, first compound 0.000316 µM) of 110%, a viability, T/C (second compound 1 µM, first compound 0.001 µM) of 99.7% and a viability, T/C (second compound 1 µM, first compound 0.00316 µM) of 106%. The viability, T/C (second compound 1 µM, first compound 0.01 µM) was 107%, the viability, T/C [7] was 103% and the viability, T/C [8] was 95.9%. For the same compound, the viability, T/C (second compound 3.16 µM, first compound 0.000316 µM) was 105%, the viability, T/C (second compound 3.16 µM, first compound 0.001 µM) was 106% and the viability, T/C (second compound 3.16 µM, first compound 0.00316 µM) was 98.2%. For the same compound, the viability, T/C (second compound 3.16 µM, first compound 0.01 µM) was 94.4%, the viability, T/C [9] was 95.9% and the viability, T/C [10] was 102%. The viability, T/C (second compound 10 µM, first compound 0.000316 µM) was 108%, the viability, T/C (second compound 10 µM, first compound 0.001 µM) was 97.2% and the viability, T/C (second compound 10 µM, first compound 0.00316 µM) was 101%. For the same compound, the viability, T/C (second compound 10 µM, first compound 0.01 µM) was 109%, the viability, T/C [11] was 100% and the viability, T/C [12] was 84%.
